In US8735384B2, “Amino heteroaryl compounds as beta-secretase modulators and methods of use” (Amgen Inc., priority 2010, dated 2014):

Legend:
[1] = molecular target: BACE1 (Homo sapiens, UniProt P56817); experiment: In vitro enzymatic BACE FRET assay; type: biochemical; settings: beta secretase enzyme 0.2 nM, FRET substrate 50 nM, pH 4.2; read-out: BACE1 FRET assay (IC50 class)
Method: In Vitro Enzymatic BACE FRET (Fluorescence Resonance Energy Transfer) Assay (Enzyme Assay Data in Table 1)
The assay buffer used in this screen is 0.05 M acetate, pH 4.2, 10% DMSO final, 100 uM genapol (which is a nonionic detergent, below its Critical Micelle Concentration). The beta secretase enzyme (0.2 nM) is pre-incubated for one hour with inhibitors, typically in about 1 uL of DMSO according to a serial dilution, are added thereto. The assay is effectively started by the addition of FRET substrate (50 nM) and the combination is incubated for one hour. The FRET assay is terminated with by addition of Tris buffer, which raises the pH to neutrality, and the fluorescence is determined. The FRET substrate is a peptide with commercially available fluorophore and quencher, on opposite sides of the BACE cleavage site. Proteolytic cleavage of the FRET substrate releases quenching of fluorescence (excitation […] and […]).
Of the compounds tested, the in-vitro BACE FRET enzyme data for each of Examples 1-220, where available at the time of filing this application, is provided in Table 1.

[2] = tested on: Aβ40 in conditioned medium of cells stably expressing Amyloid Precursor Protein (APP); experiment: In vitro BACE cell-based assay (HEK cell assay), Aβ40 sandwich ELISA; settings: Homo sapiens, HEK293, 24 h, inhibition of Aβ40, 24 h incubation, read-out: HEK cell assay (IC50 class)
Method: In Vitro BACE Cell-Based Assay:
The cell-based assay measures inhibition or reduction of Aβ40 in conditioned medium of test compound treated cells expressing amyloid precursor protein.
Cells stably expressing Amyloid Precursor Protein (APP) were plated at a density of 40K cells/well in 96 well plates (Costar). The cells were cultivated for 24 hours at 37° C. and 5% CO2 in DMEM supplemented with 10% FBS. The test compounds were then added to cells in 10-point dose response concentrations with the starting concentration being either 100 μM or 10 μM. The compounds were diluted from stock solutions in DMSO and the final DMSO concentration of the test compounds on cells was 0.1%. After 24 h of incubation with the test compounds the supernatant conditioned media was collected and the Aβ 40 levels were determined using a sandwich ELISA. The IC50 of the compound was calculated from the percent of control or percent inhibition of Aβ 40 as a function of the concentration of the test compound.
The sandwich ELISA to detect Aβ 40 was performed in 96 well microtiter plates, which were pre-treated with goat anti-rabbit IgG (Pierce). The capture and detecting antibody pair that were used to detect Aβ 40 from cell supernatants were affinity purified pAb40 (Biosource) and biotinylated 6E10 (Signet Labs Inc.), respectively. The optimal concentration for the pAb40 antibody was 3 μg/ml in Superblock/TBS (Pierce) that was supplemented with 0.05% Tween 20 (Sigma). Optimal concentration for the detection antibody 6E10-biotinylated was 0.5 μg/ml in Superblock/TBS (Pierce) that had been supplemented with 2% normal goat serum and 2% normal mouse serum.
Cellular supernatants were incubated with the capture antibody for 3 h at 4° C., followed by 3 wash steps in TBS-tween (0.05%). The detecting antibody incubation was for 2 h at 4° C., again followed by the wash steps as described previously. The final readout of the ELISA is Time-Resolved Fluorescence (counts per minute) using Delfia reagents Streptavidin-Europium and Enhancement solutions (Perkin Elmer) and the Victor 2 multilabel counter (Perkin Elmer).

Sequence of BACE1 (P56817 46-501, species assumed): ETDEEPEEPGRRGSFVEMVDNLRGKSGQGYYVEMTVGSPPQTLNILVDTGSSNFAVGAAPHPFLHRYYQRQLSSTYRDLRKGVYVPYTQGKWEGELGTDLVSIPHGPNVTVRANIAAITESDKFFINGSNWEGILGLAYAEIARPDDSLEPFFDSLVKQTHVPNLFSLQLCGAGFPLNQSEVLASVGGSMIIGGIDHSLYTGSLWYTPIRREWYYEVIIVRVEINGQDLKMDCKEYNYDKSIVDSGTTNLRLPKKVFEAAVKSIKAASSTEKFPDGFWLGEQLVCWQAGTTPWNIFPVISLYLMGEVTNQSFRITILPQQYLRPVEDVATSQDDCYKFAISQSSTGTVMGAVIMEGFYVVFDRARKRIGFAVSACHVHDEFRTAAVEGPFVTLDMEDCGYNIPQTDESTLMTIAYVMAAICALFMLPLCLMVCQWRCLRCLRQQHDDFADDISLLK

| Compound | IC50 [1] [nM] | IC50 [2] [nM] |
| --- | --- | --- |
| Cc1cccc(-c2ncc3ccccn23)c1-c1ccc2nc(N)c(N3CCOCC3)cc2c1 [Example 30, 6-(2-(imidazo[1,5-a]pyridin-3-yl)-6-methylphenyl)-3-morpholinoquinolin-2-amine] | 100 to 500 | 1010 to 5000 |
| Cc1coc(-c2cccc(C)c2-c2ccc3nc(N)c(N4CCOCC4)cc3c2)n1 [Example 31, 6-(2-methyl-6-(4-methyloxazol-2-yl)phenyl)-3-morpholinoquinolin-2-amine] | 100 to 500 | > 5000 |
| Cc1cnc(-c2cccc(C)c2-c2ccc3nc(N)c(N4CCOCC4)cc3c2)o1 [Example 32, 6-(2-methyl-6-(5-methyloxazol-2-yl)phenyl)-3-morpholinoquinolin-2-amine] | 1010 to 5000 | > 5000 |
| Nc1nc2ccc(-c3ccccc3-n3ncc4c3CCCC4)cc2cc1N1CCOCC1 [Example 33, 3-morpholino-6-(2-(4,5,6,7-tetrahydro-1H-indazol-1-yl)phenyl)quinolin-2-amine] | 100 to 500 | 1010 to 5000 |
| Cc1cccc(-n2cc(Cl)c(C)n2)c1-c1ccc2nc(N)c(N3CCOCC3)cc2c1 [Example 34, 6-(2-(4-chloro-3-methyl-1H-pyrazol-1-yl)-6-methylphenyl)-3-morpholinoquinolin-2-amine] | < 100 | 1010 to 5000 |
| Cc1cccc(C(O)c2cnccn2)c1-c1ccc2nc(N)c(N3CCOCC3)cc2c1 (stereo not shown) [Example 36, (2-(2-amino-3-morpholinoquinolin-6-yl)-3-methylphenyl)(pyrazin-2-yl)methanol] | 1010 to 5000 | 1010 to 5000 |
| Cc1cccc(Cc2cnccn2)c1-c1ccc2nc(N)c(N3CCOCC3)cc2c1 [Example 37, 6-(2-methyl-6-(pyrazin-2-ylmethyl)phenyl)-3-morpholinoquinolin-2-amine] | 501 to 1000 | 1010 to 5000 |
| Cc1cccc(C(=O)c2ccccn2)c1-c1ccc2nc(N)c(C3CCOCC3)cc2c1 [Example 38, (2-(2-amino-3-(tetrahydro-2H-pyran-4-yl)quinolin-6-yl)-3-methylphenyl)(pyridin-2-yl)methanone] | < 100 | 100 to 500 |
| Cc1cccc(C(=O)N2CCCC2)c1-c1cc2cc(N3CCOCC3)c(N)nc2cc1F [Example 39, (2-(2-amino-7-fluoro-3-morpholinoquinolin-6-yl)-3-methylphenyl)(pyrrolidin-1-yl)methanone] | < 100 | 501 to 1000 |
| Cc1cccc(C#CC(C)(C)C)c1-c1ccc2nc(N)c(N3CCOCC3)cc2c1 [Example 40, 6-(2-(3,3-dimethylbut-1-ynyl)-6-methylphenyl)-3-morpholinoquinolin-2-amine] | < 100 | 1010 to 5000 |
| Cc1cccc(C(=O)N(C)CC(C)(C)C)c1-c1ccc2nc(N)c(N3CCOCC3)cc2c1 [Example 41, 2-(2-amino-3-morpholinoquinolin-6-yl)-N,3-dimethyl-N-neopentylbenzamide] | < 100 | 501 to 1000 |
| Nc1nc2ccc(-c3c(Cl)cccc3C(=O)N3CCCC3)cc2cc1N1CCOCC1 [Example 42, (2-(2-amino-3-morpholinoquinolin-6-yl)-3-chlorophenyl)(pyrrolidin-1-yl)methanone] | < 100 | 501 to 1000 |
| Cc1cccc(C(=O)N2CCOC(C)(C)C2)c1-c1ccc2nc(N)c(N3CCOCC3)cc2c1 [Example 43, (2-(2-amino-3-morpholinoquinolin-6-yl)-3-methylphenyl)(2,2-dimethylmorpholino)methanone] | 100 to 500 | 1010 to 5000 |
| CC(C)(C)C#Cc1cccc(C(=O)N2CCCC2)c1-c1ccc2nc(N)c(N3CCOCC3)cc2c1 [Example 44, (2-(2-amino-3-morpholinoquinolin-6-yl)-3-(3,3-dimethylbut-1-ynyl)phenyl)(pyrrolidin-1-yl)methanone] | < 100 | 100 to 500 |
| CC(C)(C)CCc1cccc(C(=O)N2CCCC2)c1-c1ccc2nc(N)c(N3CCOCC3)cc2c1 [Example 45, (2-(2-amino-3-morpholinoquinolin-6-yl)-3-(3,3-dimethylbutyl)phenyl)(pyrrolidin-1-yl)methanone] | < 100 | < 100 |
| CC(C)(C)CC(=O)c1cccc(C(=O)N2CCCC2)c1-c1ccc2nc(N)c(N3CCOCC3)cc2c1 [Example 46, 1-(2-(2-amino-3-morpholinoquinolin-6-yl)-3-(pyrrolidine-1-carbonyl)phenyl)-3,3-dimethylbutan-1-one] | < 100 | 100 to 500 |
| CC(C)(C)CCc1cccc(C(=O)N2CC[C@@H](F)C2)c1-c1ccc2nc(N)c(N3CCOCC3)cc2c1 [Example 47, (R)-(2-(2-amino-3-morpholinoquinolin-6-yl)-3-(3,3-dimethylbutyl)phenyl)(3-fluoropyrrolidin-1-yl)methanone] | < 100 | < 100 |
| Cc1cccc(N2CCOCC2=O)c1-c1ccc2nc(N)c(N3CCOCC3)cc2c1 [Example 48, 4-(2-(2-amino-3-morpholinoquinolin-6-yl)-3-methylphenyl)morpholin-3-one] | 501 to 1000 | 1010 to 5000 |
| Cc1cccc(N2CC(C)(C)OCC2=O)c1-c1ccc2nc(N)c(N3CCOCC3)cc2c1 [Example 49, 4-(2-(2-amino-3-morpholinoquinolin-6-yl)-3-methylphenyl)-6,6-dimethylmorpholin-3-one] | 100 to 500 | 1010 to 5000 |
| Cc1cccc(N(C)C(=O)CC(C)(C)C)c1-c1ccc2nc(N)c(N3CCOCC3)cc2c1 [Example 50, N-(2-(2-amino-3-morpholinoquinolin-6-yl)-3-methylphenyl)-N,3,3-trimethylbutanamide] | 501 to 1000 | 1010 to 5000 |
| CC(C)(C)COc1ccccc1-c1ccc2nc(N)c(N3CCOCC3)cc2c1 [Example 51, 3-morpholino-6-(2-(neopentyloxy)phenyl)quinolin-2-amine] | 501 to 1000 | > 5000 |
| Cc1cccc(OCC(C)(C)C)c1-c1ccc2nc(N)c(N3CCOCC3)cc2c1 [Example 52, 6-(2-methyl-6-(neopentyloxy)phenyl)-3-morpholinoquinolin-2-amine] | < 100 | > 5000 |
| Nc1nc2ccc(-c3ccccc3OCc3ccccc3)cc2cc1N1CCOCC1 [Example 53, 6-(2-(benzyloxy)phenyl)-3-morpholinoquinolin-2-amine] | 100 to 500 | > 5000 |
| Cc1cccc(OC2CCOC2)c1-c1ccc2nc(N)c(N3CCOCC3)cc2c1 (stereo not shown) [Example 54, 6-(2-methyl-6-(tetrahydrofuran-3-yloxy)phenyl)-3-morpholinoquinolin-2-amine] | 501 to 1000 | 1010 to 5000 |
| Cc1cccc(Nc2ccccc2)c1-c1ccc2nc(N)c(N3CCOCC3)cc2c1 [Example 55, 6-(2-methyl-6-(phenylamino)phenyl)-3-morpholinoquinolin-2-amine] | 100 to 500 | > 5000 |
| Cc1cccc(C(=O)N2CCCC2)c1-c1ccc2nc(N)c(N3C[C@@H]4C[C@H]3CO4)cc2c1 [Example 56, (2-(2-amino-3-((1S,4S)-2-oxa-5-azabicyclo[2.2.1]heptan-5-yl)quinolin-6-yl)-3-methylphenyl)(pyrrolidin-1-yl)methanone] | < 100 | < 100 |
| Cc1cccc(C(=O)N2CCCC2)c1-c1ccc2nc(N)c(C3=CCCC3)cc2c1 [Example 57, (2-(2-amino-3-cyclopentenylquinolin-6-yl)-3-methylphenyl)(pyrrolidin-1-yl)methanone] | 100 to 500 | 1010 to 5000 |
| Cc1cccc(C(=O)N2CCCCC2)c1-c1ccc2nc(N)c(N3CCOCC3)cc2c1 [Example 58, (2-(2-amino-3-morpholinoquinolin-6-yl)-3-methylphenyl)(piperidin-1-yl)methanone] | < 100 | 501 to 1000 |
| Cc1cccc(C(=O)N2CCOCC2)c1-c1ccc2nc(N)c(N3CCOCC3)cc2c1 [Example 59, (2-(2-amino-3-morpholinoquinolin-6-yl)-3-methylphenyl)(morpholino)methanone] | 100 to 500 | 1010 to 5000 |
